Data set [1] has as its target T1, T. brucei guanosine 5'-monophosphate reductase (TbGMPR) (Trypanosoma brucei, UniProt Q57ZS7).
T1 construct: gene Tb05.1P6.110; recombinant TbGMPR coding region, GST fusion in E. coli, tag cleaved with PreScission protease
Kind of data set: NADPH consumption at […] nm, Lineweaver-Burk, competitive inhibition fit (IC50 […]). The data set is classed as biochemical.

In data set [2] the target is T1, T. brucei guanosine 5'-monophosphate reductase (TbGMPR). Nature of the data set: NADPH consumption at […] nm, Hill fit. The data set is classed as biochemical.
The target in data set [3] is T2, HsGMPR2 (human GMPR type 2) (Homo sapiens, UniProt Q9P2T1).
T2 construct: gene GMPR2; recombinant
T2 sequence (Q9P2T1 1-348): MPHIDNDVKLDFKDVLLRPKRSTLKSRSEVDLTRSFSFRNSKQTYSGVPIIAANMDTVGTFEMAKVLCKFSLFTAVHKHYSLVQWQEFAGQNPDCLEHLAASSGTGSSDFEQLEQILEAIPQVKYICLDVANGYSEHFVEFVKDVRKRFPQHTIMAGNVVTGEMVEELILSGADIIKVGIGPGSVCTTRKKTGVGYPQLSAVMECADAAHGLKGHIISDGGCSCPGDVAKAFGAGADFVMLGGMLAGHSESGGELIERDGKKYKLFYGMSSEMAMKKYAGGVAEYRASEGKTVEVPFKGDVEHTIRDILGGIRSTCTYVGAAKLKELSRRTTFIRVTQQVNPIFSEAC
Kind of data set: NADPH consumption at […] nm, Hill fit. The data set is classed as biochemical.

In data set [4] the target is T3, HsGMPR1 (human GMPR type 1) (Homo sapiens, UniProt P36959).
T3 construct: recombinant
T3 sequence (P36959 1-345): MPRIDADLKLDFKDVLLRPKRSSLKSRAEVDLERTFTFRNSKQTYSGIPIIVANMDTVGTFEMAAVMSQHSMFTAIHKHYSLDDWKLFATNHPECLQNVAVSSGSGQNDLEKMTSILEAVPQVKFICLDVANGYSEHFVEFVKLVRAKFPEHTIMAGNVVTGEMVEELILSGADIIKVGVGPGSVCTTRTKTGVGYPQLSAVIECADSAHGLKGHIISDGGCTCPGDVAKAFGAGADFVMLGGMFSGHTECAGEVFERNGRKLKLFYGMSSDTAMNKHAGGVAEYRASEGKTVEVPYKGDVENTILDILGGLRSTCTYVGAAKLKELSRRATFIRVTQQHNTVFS
Nature of the data set: NADPH consumption at […] nm, Hill fit. The data set is classed as biochemical.

Substrate in data set [5]: NC(=O)C1=CN([C@@H]2O[C@H](COP(=O)(O)OP(=O)(O)OC[C@H]3O[C@@H](n4cnc5c(N)ncnc54)[C@H](OP(=O)(O)O)[C@@H]3O)[C@@H](O)[C@H]2O)C=CC1
Kind of data set: purified protein. The class given is biochemical, Trypanosoma brucei. To be noted: varied: cofactor.

Substrate in data set [6]: Nc1nc2c(ncn2[C@@H]2O[C@H](COP(=O)(O)O)[C@@H](O)[C@H]2O)c(=O)[nH]1
Kind of data set: purified protein. To be noted: NADPH. The data set is classed as biochemical, Trypanosoma brucei.

Substrate in data set [7]: NC(=O)C1=CN([C@@H]2O[C@H](COP(=O)(O)OP(=O)(O)OC[C@H]3O[C@@H](n4cnc5c(N)ncnc54)[C@H](OP(=O)(O)O)[C@@H]3O)[C@@H](O)[C@H]2O)C=CC1
Kind of data set: purified protein. To be noted: varied: cofactor.

Substrate in data set [8]: Nc1nc2c(ncn2[C@@H]2O[C@H](COP(=O)(O)O)[C@@H](O)[C@H]2O)c(=O)[nH]1
Kind of data set: purified protein. The data set is classed as biochemical, Homo sapiens. To be noted: NADPH.

On to `NC(=O)c1ncn([C@@H]2O[C@H](COP(=O)(O)O)[C@@H](O)[C@H]2O)n1` [RMP, ribavirin 5'-monophosphate], for which, in data set [1], affinity was put at a Ki of 4.46 ± 0.46 µM.

On to `NC(=O)c1ncn([C@@H]2O[C@H](COP(=O)(O)O)[C@@H](O)[C@H]2O)c1O` [MZP, mizoribine 5’-monophosphate], for which the IC50 (commonly the concentration that gives 50% inhibition) stood at 23.7 ± 1.9 µM in data set [2], 69.3 ± 7.8 µM in data set [3] and 120 ± 16.1 µM in data set [4].

B1: T. brucei guanosine 5'-monophosphate reductase (TbGMPR) (Trypanosoma brucei brucei TREU927) (protein)
chain: MSFNESASIPTGLTYDDVLIIPQHSRVTSRKEVNTTTRLSRNVKLSIPIVASNMDTVCEQRMAVAMAREGGIGILHRFCSIEEQCAMLREVKRAQSFLIESPRIILPHETAREAWEGLNWKGRVGGVGCLLVVNCKNERKLLGIITRHDLKLADESTTVESLMTPVDKMVVSTNTSISLEEVTHLMRKGRTANVPIVGQNGQLLYLVTLSDVVKLRKNKQASLDSRGRLLVGAAVGVKKDDMNRAIRLVEAGADVLVVDIAHGHSDLCINMVKRLKGDPRTASVDIIAGNIASAEAAEALIDAGADGLKIGVGPGSICITRLVAGAGVPQLSAVLACTRVARRRGVPCIADGGLRTSGDISKAIGAGADTVMLGNMLAGTDEAPGRVLVKDGQKVKIIRGMAGFGANLSKAERERTQDEDVFSSLVPEGVEGSVACKGPVGPIVRQLVGGLRSGMSYSGAKSIEEMQRRTRFVRMTGAGLRESGSHGVAKL
notes: recombinant TbGMPR coding region, GST fusion in E. coli, tag cleaved with PreScission protease
Take B1: the Km (in general, the concentration of substrate that gives half-maximal velocity) in the data set “purified protein [5]” was determined as 12.3 ± 0.8 µM; in the data set “purified protein [6]”, 89.3 ± 9.0 µM.

B2: HsGMPR1 (human GMPR type 1) (Homo sapiens) (protein)
chain: T3 sequence (P36959 1-345)
notes: recombinant
Turning to B2, the Km in “purified protein [7]” stood at 34.8 ± 4.3 µM; in the data set “purified protein [8]”, 22.1 ± 2.2 µM.

The values are drawn from publication PMC4701174, “Novel Characteristics of Trypanosoma brucei Guanosine 5'-monophosphate Reductase Distinct from Host Animals” (PLoS Neglected Tropical Diseases, 2016).
